The record followed here is patent US11498904B2, “Substituted biaryl compounds as indoleamine 2,3-dioxygenase (IDO) inhibitors” (MERCK SHARP & DOHME CORP., priority 2017, dated 2022).

For this test, the target named is IDO1 (Homo sapiens, UniProt P14902). The test can be described thus: IDO1 Human Whole Blood Assay. Type of test: cell-based. The following applies: LPS and IFNγ 100 ng/mL, 18 h, kynurenine by LC/MS/MS, read-out: Human Whole Blood Potency, IC50. Here is the method: IDO1 Human Whole Blood Assay
Sequence of IDO1 (P14902 whole entry): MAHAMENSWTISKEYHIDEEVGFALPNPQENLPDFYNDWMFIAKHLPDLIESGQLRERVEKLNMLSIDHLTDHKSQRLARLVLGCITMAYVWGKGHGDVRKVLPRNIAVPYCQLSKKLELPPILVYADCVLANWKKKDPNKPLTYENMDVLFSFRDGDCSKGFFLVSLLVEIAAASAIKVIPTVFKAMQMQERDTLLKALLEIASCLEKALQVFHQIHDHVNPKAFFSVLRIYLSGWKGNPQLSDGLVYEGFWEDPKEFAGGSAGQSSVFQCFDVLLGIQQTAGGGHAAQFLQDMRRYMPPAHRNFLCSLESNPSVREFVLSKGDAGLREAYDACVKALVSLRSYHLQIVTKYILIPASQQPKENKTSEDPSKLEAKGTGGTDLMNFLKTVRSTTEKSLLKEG
Compounds to be tested were serially diluted in ten 3-fold steps in DMSO starting from 10 mM. […] LPS and IFNγ was prepared in RPMI to a 10× of final conc. (1000 ng/mL), final concentration is 100 ng/mL.
240 μL of blood was transferred to each of the wells of a v-bottom 96 well plate. 30 μL of compound was transferred from intermediate dilution plate, and incubated for 15 min. 30 μL from stimulants was then transferred to blood and mixed thoroughly. Plate was covered with breathable membrane and incubated at 37° C. for overnight (18 h).
On day 2 isotope labeled standard of kynurenine and tryptophan was made in water at 10× concentration and 30 μL was added to the blood at 3 μM final concentration. The assay plates were centrifuged at 300×G for 10 min with no brake to separate plasma from red blood cells. 60 μL of plasma samples was removed without disturbing red blood cells. Plasma was diluted with RPMI in 1:1 ratio and proteins were precipitated out with two volume of
Acetonitrile. The plates were centrifuged at 4000×G for 60 min. 20 μL of supernatant was carefully transferred to a 384 well plate contain 40 μL of 0.1% formic acid in water and analyzed by LC/MS/MS.
LC/MS/MS analyses were performed using Thermo Fisher's LX4-TSQ Quantum Ultra system. This system consists of four Agilent binary high-performance liquid chromatography (HPLC) pumps and a TSQ Quantum Ultra triple quadrupole MS/MS instrument. For each sample, 5 μL were injected onto an Atlantis T3 column (2.1 mm×150 mm, 3 μm particle size) from Waters. The mobile phase gradient pumped at 0.8 mL/min was used to elute the analytes from the column at 25° C. […] Mobile phase A consisted of 0.1% formic acid in water. Mobile phase B consisted of 0.1% of formic acid in acetonitrile. Data was acquired in positive mode using a HESI interface. The operational parameters for the TSQ Quantum Ultra instrument were a spray voltage of 4000 V, capillary temperature of 380° C., vaporizer temperature 400° C., shealth gas 60 arbitrary units, Aux gas 20 arbitrary units, tube lens 85 and collision gas 1.2 mTorr. SRM chromatograms of kynurenine (Q1: 209.2>Q3:94.0) and internal standard (Q1: 215.3>Q3:98.2) were collected for 90 sec. The peak area was integrated by Xcalibur Quan software. The ratios between the kynurenine generated in the reaction and 2D6-Kynurenine spiked-in internal standard were used to generate percentage inhibition and IC50 values. Compounds were titrated and IC50's were calculated by 4 parameter sigmoidal curve fitting formula.
The biological activity data of selective compounds using the IDO1 human whole blood assay described above are summarized in the table below.

A word on the IC50: it is the midpoint of a concentration-inhibition curve.

Counter-ions that a name gives are not always drawn.

For `N#Cc1ccc(C(=O)NC2(c3ccc(-c4cnc(C(F)(F)F)cc4CO)cc3)CCC2)cc1` [Example 35, 4-cyano-N-(1-(4-(4-(hydroxymethyl)-6-(trifluoromethyl)pyridin-3-yl)phenyl)cyclobutyl)benzamide], the IC50 was 1.07 µM.
The same measure for `C[C@H](O)c1cc(C(F)(F)F)ncc1-c1ccc(C2(NC(=O)c3ccc(F)cc3)CC2)cc1` [Example 50, (S)-4-fluoro-N-(1-(4-(4-(1-hydroxyethyl)-6-(trifluoromethyl)pyridin-3-yl)phenyl)cyclopropyl)benzamide]: 0.186 µM; for `CC(C)(O)c1cc(OC2CC2)ncc1-c1ccc(C2(NC(=O)c3ccc(F)cc3)CC2)cc1` [Example 47, N-(1-(4-(6-cyclopropoxy-4-(2-hydroxypropan-2-yl)pyridin-3-yl)phenyl)cyclopropyl)-4-fluorobenzamide]: 0.127 µM.
Take `CC1CC1(NC(=O)c1ccc(F)cc1)c1ccc(-c2cnc(C(F)(F)F)cc2C(C)(C)O)nc1` (single isomer, unassigned) [Example 56, 4-fluoro-N-(1-(4′-(2-hydroxypropan-2-yl)-6′-(trifluoromethyl)-[2,3′-bipyridin]-5-yl)-2-methylcyclopropyl)benzamide]: the IC50 amounted to 0.361 µM.
As for `CC1CC1(NC(=O)c1ccc(F)cc1)c1ccc(-c2cnc(C(F)(F)F)cc2C(C)(C)O)nc1` (single isomer, unassigned) [Example 59], the IC50 turned out to be 0.171 µM.
In the case of `CC(C)Oc1cc(CO)c(-c2ccc(C3(NC(=O)c4ccc(F)cc4)CC3)cc2)cn1` [Example 49, 4-fluoro-N-(1-(4-(4-(hydroxymethyl)-6-isopropoxypyridin-3-yl)phenyl)cyclopropyl)benzamide], the IC50 stood at 0.579 µM.
For `CC1CC1(NC(=O)c1ccc(F)cc1)c1ccc(-c2cnc(C(F)(F)F)cc2C(C)(C)O)nc1` (single isomer, unassigned) [Example 60] the value was 0.21 µM.
Take `O=C(NC1(c2ccc(-c3cnc(C(F)(F)F)cc3CO)cc2)CCC1)c1ccc(F)cc1` [Example 53]: the IC50 came out at 1 µM.
With `COc1cc(C)c(-c2ccc(C3(NC(=O)c4ccc(C#N)cc4)CCC3)cc2)c(C)n1` [Example 36, 4-cyano-N-(1-(4-(6-methoxy-2,4-dimethylpyridin-3-yl)phenyl)cyclobutyl)benzamide], the IC50 was 0.308 µM.
For `O=C(NC1(c2ccc(-c3cnc(C(F)(F)F)cc3CO)cc2)CC1)c1ccc(Cl)cc1` [Example 46, 4-chloro-N-(1-(4-(4-(hydroxymethyl)-6-(trifluoromethyl)pyridin-3-yl)phenyl)cyclopropyl)benzamide] the value was 0.703 µM.
With `Cc1cc(C2CC2)ncc1-c1ccc(C2(NC(=O)c3ccc(C#N)cc3)CCC2)cc1` [Example 12, 4-cyano-N-(1-(4-(6-cyclopropyl-4-methylpyridin-3-yl)phenyl)cyclobutyl)benzamide], the IC50 came to 0.246 µM.
The same measure for `Cc1cc(C2CC2)ncc1-c1ccc(C2(NC(=O)c3ccc(C#N)cc3)CCC2)nc1` [Example 42, 4-Cyano-N-(1-(6′-cyclopropyl-4′-methyl-[3,3′-bipyridin]-6-yl)cyclobutyl)benzamide]: 0.392 µM; for `CC(C)(O)c1cc(OC2CC2)ncc1-c1ccc(C2(NC(=O)c3ccc(F)cc3)CCC2)cc1` [Example 54, N-(1-(4-(6-cyclopropoxy-4-(2-hydroxypropan-2-yl)pyridin-3-yl)phenyl)cyclobutyl)-4-fluorobenzamide]: 0.336 µM; for `O=C(NC1(c2ccc(-c3cnc(OC4CC4)cc3CO)cc2)CC1)c1ccc(F)cc1` [Example 48, N-(1-(4-(6-cyclopropoxy-4-(hydroxymethyl)pyridin-3-yl)phenyl)cyclopropyl)-4-fluorobenzamide]: 0.922 µM.
For `CC1CC1(NC(=O)c1ccc(F)cc1)c1ccc(-c2cnc(C(F)(F)F)cc2C(C)(C)O)nc1` (single isomer, unassigned) [Example 58] the value was 0.284 µM; for `C[C@@H](O)c1cc(C(F)(F)F)ncc1-c1ccc(C2(NC(=O)c3ccc(F)cc3)CC2)cc1` [Example 51, (R)-4-fluoro-N-(1-(4-(4-(1-hydroxyethyl)-6-(trifluoromethyl)pyridin-3-yl)phenyl)cyclopropyl)benzamide, 2,2,2-trifluoroacetate salt], 0.233 µM.
The same measure for `Cc1cc(C2CC2)ncc1-c1ccc(C2(NC(=O)c3ccc(C#N)cc3)CCC2)cc1F` [Example 7, 4-Cyano-N-(1-(4-(6-cyclopropyl-4-methylpyridin-3-yl)-3-fluorophenyl)cyclobutyl)benzamide]: 0.398 µM.
Regarding `CC(C)(O)c1cc(C(F)(F)F)ncc1-c1ccc(C2(NC(=O)c3ccc(F)cc3)CCC2)cc1` [Example 52, 4-fluoro-N-(1-(4-(4-(2-hydroxypropan-2-yl)-6-(trifluoromethyl)pyridin-3-yl)phenyl)cyclobutyl)benzamide], the IC50 came out at 0.152 µM.
For `N#Cc1ccc(C(=O)NC2(c3ccc(-c4ccc(C5CC5)nc4CO)cc3)CCC2)cc1` [Example 25, 4-cyano-N-(1-(4-(6-cyclopropyl-2-(hydroxymethyl)pyridin-3-yl)phenyl)cyclobutyl)benzamide] the value was 0.587 µM.
